The record followed here is patent US20250032485A1, “APPLICATION OF IMIDAZO [1,2-A] PYRAZINE COMPOUNDS OR THEIR PHARMACEUTICALLY ACCEPTABLE SALTS IN THE PREPARATION OF ANTI-CORONAVIRUS DRUGS” (GUANGZHOU MEDICAL UNIVERSITY, priority 2023, published 2025).

For orientation: inhibition means how much of the control response was suppressed.

The experiment deals with PLpro of SARS-CoV-2 (Severe acute respiratory syndrome coronavirus 2, UniProt P0DTD1). Put plainly: Enzyme activity test in vitro: inhibition of PLpro at fixed concentration 50 μM (RLRGG-AMC substrate). The format is biochemical. The conditions noted are these: read-out: Inhibition rate at 50 μM (%).
Take `O=C(O)c1cccc(Nc2c(-c3ccc(Cl)cc3)nc3cnccn23)c1` [P19516, 3-[[2-(4-chlorophenyl)imidazo[1,2-a]pyrazin-3-yl]amino] benzoic acid]: the inhibition at 50 µM is 32.8%.
Then `CCc1cccc(C)c1Nc1c(-c2ccc(OC)c(OC)c2)nc2cnccn12` [P19513, 2-(3,4-dimethoxy-phenyl)-N-(2-ethyl-6-methylphenyl)imidazo [1,2-a]pyrazin-3-amine], with 38.8%; and `COc1ccc(-c2nc3cnccn3c2Nc2c(C)cccc2C)cc1OC` [P19483, 2-(3,4-dimethoxy-phenyl)-N-(2,6-di-methylphenyl)imidazo [1,2-a]pyrazin-3-amine], with 37.8%; and `O=C(c1cccc(Nc2c(-c3ccccc3)nc3cnccn23)c1)N1CCOCC1` [P22409, morpholin-4-yl-[3-[(2-phenylimidazo [1,2-a]pyrazin-3-yl)amino]phenyl] methanone], with 28.2%.
Then `COC(=O)c1cccc(Nc2c(-c3ccc(SC)cc3)nc3cnccn23)c1` [P19495, methyl 3-[[2-(4-methyl-sulfanylphenyl)imidazo [1,2-a]pyrazin-3-yl]amino]benzoate], with 41.7%; and `COc1ccc(-c2nc3cnccn3c2Nc2ccc(C(=O)N3CCOCC3)cc2)cc1OC` [P22470, [4-[[2-(3,4-dimethoxy-phenyl)imidazo[1,2-a]pyrazin-3-yl]amino]phenyl]-morpholin-4-ylmethanone], with 32.1%.
Then `Cc1cccc(C)c1Nc1c(-c2ccccc2)nc2cnccn12` [P32333, N-(2,6-dimethylphenyl)-2-phenylimidazo [1,2-a]pyrazin-3-amine], with 35.8%.
In the case of `COc1ccc(-c2nc3cnccn3c2Nc2ccc(C(C)C)cc2)cc1OC` [P19473, 2-(3,4-dimethoxy-phenyl)-N-(4-propan-2-ylphenyl)imidazo [1,2-a]pyrazin-3-amine], the inhibition at 50 µM stood at 37.5%.
Then `CCc1cccc(C)c1Nc1c(-c2ccc(C(=O)NC)cc2)nc2cnccn12` [P22501, 4-[3-(2-ethyl-6-methyl-anilino)imidazo [1,2-a]pyrazin-2-yl]-N-methyl-benzamide], with 28.7%; and `O=C(NCCN1CCOCC1)c1ccc(Nc2c(-c3ccccc3)nc3cnccn23)cc1` [P22472, N-(2-morpholin-4-ylethyl)-4-[(2-phenyl-imidazo[1,2-a]pyrazin-3-yl)amino] benzamide], with 33%; and `COc1ccc(-c2nc3cnccn3c2Nc2ccc(C(=O)NCC3CCCO3)cc2)cc1` (centres unmarked) [P22473, 4-[[2-(4-methoxy-phenyl)imidazo[1,2-a]pyrazin-3-yl]amino]-N-(oxolan-2-ylmethyl) benzamide], with 36.8%.
To `O=C(O)c1ccc(Nc2c(-c3cc(Br)ccc3O)nc3cnccn23)cc1` [P22503, 4-[[2-(5-bromo-2-hydroxyphenyl)imidazo [1,2-a]pyrazin-3-yl]amino]benzoic acid] belongs 27.6%.
To `CSc1ccc(-c2nc3cnccn3c2Nc2cccc(C(=O)NCC3CCCO3)c2)cc1` (centres unmarked) [P22418, 3-[[2-(4-methyl-sulfanylphenyl)imidazo [1,2-a]pyrazin-3-yl]amino]-N-(oxolan-2-ylmethyl)benzamide] belongs 34.5%; to `O=C(NCc1ccco1)c1cccc(Nc2c(-c3ccc(Cl)cc3)nc3cnccn23)c1` [P22469, 3-[[2-(4-chlorophenyl)imidazo[1,2-a]pyrazin-3-yl]amino]-N-(furan-2-ylmethyl) benzamide], 40.5%.
As to `O=C(NCC1CCCO1)c1cccc(Nc2c(-c3ccc(Cl)cc3)nc3cnccn23)c1` (centres unmarked) [P22408, 3-[[2-(4-chlorophenyl)imidazo[1,2-a]pyrazin-3-yl]amino]-N-(oxolan-2-ylmethyl)benzamide], the inhibition at 50 µM stood at 17.3%.
Consider `CCNC(=O)c1cccc(Nc2c(-c3ccccc3)nc3cnccn23)c1` [P22446, N-ethyl-3-[(2-phenyl-imidazo[1,2-a]pyrazin-3-yl)amino] benzamide], for which the inhibition at 50 µM came to 44.4%.
To `COc1ccc(-c2nc3cnccn3c2Nc2ccc(C(=O)NCC3CCCO3)cc2)cc1OC` (centres unmarked) [P22440, 4-[[2-(3,4-dimethoxy-phenyl)imidazo[1,2-a]pyrazin-3-yl]amino]-N-(oxolan-2-ylmethyl)benzamide] belongs 33.5%.
To `Fc1ccc(-c2nc3cnccn3c2Nc2ccc(Cl)cc2)cc1` [P37356, N-(4-chlorophenyl)-2-(4-fluorophenyl) imidazo[1,2-a] pyrazin-3-amine] belongs 3.18%.
To `CC(C)NC(=O)c1cccc(Nc2c(-c3ccccc3)nc3cnccn23)c1` [P22476, 3-[(2-phenylimidazo [1,2-a]pyrazin-3-yl)amino]-N-propan-2-ylbenzamide] belongs 29%; to `CCNC(=O)c1ccc(Nc2c(-c3ccccc3)nc3cnccn23)cc1` [P22461, N-ethyl-4-[(2-phenyl-imidazo[1,2-a]pyrazin-3-yl)amino] benzamide], 32.3%; to `COC(=O)c1ccc(-c2nc3cnccn3c2Nc2ccc3c(c2)OCCO3)cc1` [P24862, methyl 4-[3-(2,3-dihydro-1,4-benzodioxin-6-ylamino)imidazo[1,2-a]pyrazin-2-yl] benzoate], 30.1%.
`CCc1cccc(C)c1Nc1c(-c2ccc(N)cc2)nc2cnccn12` [P37348, 2-(4-aminophenyl)-N-(2-ethyl-6-methyl-phenyl)imidazo[1,2-a]pyrazin-3-amine]: the inhibition at 50 µM was determined as 16%.
To `CSc1ccc(-c2nc3cnccn3c2Nc2cccc(C(=O)N3CCCCC3)c2)cc1` [P22478, [3-[[2-(4-methyl-sulfanylphenyl)imidazo [1,2-a]pyrazin-3-yl]amino]phenyl]-piperidin-1-ylmethanone] belongs 43.9%.
To `Cc1ccc(-c2nc3cnccn3c2Nc2ccc(C(=O)NCc3ccco3)cc2)cc1` [P22455, N-(furan-2-ylmethyl)-4-[[2-(4-methyl-phenyl)imidazo[1,2-a]pyrazin-3-yl]amino] benzamide] belongs 40.1%; to `COC(=O)c1cccc(Nc2c(-c3cc(Br)ccc3O)nc3cnccn23)c1` [P19466, methyl 3-[[2-(5-bromo-2-hydroxyphenyl)imidazo [1,2-a]pyrazin-3-yl]amino]benzoate], 31.9%.
Then `Cc1ccc(-c2nc3cnccn3c2Nc2ccc(C(=O)O)cc2)cc1` [P19465, 4-[[2-(4-methyl-phenyl)imidazo[1,2-a]pyrazin-3-yl]amino] benzoic acid], with 15.9%; and `O=C(O)c1ccc(Nc2c(-c3cccc(Br)c3)nc3cnccn23)cc1` [P18234, 4-[[2-(3-bromophenyl)imidazo[1,2-a]pyrazin-3-yl]amino] benzoic acid], with 20.5%.
For `O=C(c1cccc(Nc2c(-c3ccccc3)nc3cnccn23)c1)N1CCCCC1` [P22458, [3-[(2-phenylimidazo [1,2-a]pyrazin-3-yl)amino]phenyl]-piperidin-1-ylmethanone], the inhibition at 50 µM was determined as 35.5%.
Then `COC(=O)c1ccc(-c2nc3cnccn3c2Nc2ccc(OC)c(OC)c2)cc1` [P22491, methyl 4-[3-(3,4-dimethoxy-anilino)imidazo[1,2-a]pyrazin-2-yl] benzoate], with 22.4%; and `COC(=O)c1ccc(-c2nc3cnccn3c2Nc2c(C)cccc2C)cc1` [P37307, methyl 4-[3-(2,6-dimethyl-anilino)imidazo[1,2-a]pyrazin-2-yl] benzoate], with 43.4%; and `O=C(NC1CCCCC1)c1cccc(Nc2c(-c3ccc(F)cc3)nc3cnccn23)c1` [P22481, N-cyclohexyl-3-[[2-(4-fluorophenyl)imidazo[1,2-a]pyrazin-3-yl]amino] benzamide], with 11.8%.
To `COC(=O)c1cccc(Nc2c(-c3ccc([N+](=O)[O-])cc3)nc3cnccn23)c1` [P24823, methyl 3-[[2-(4-nitrophenyl)imidazo[1,2-a]pyrazin-3-yl]amino] benzoate] belongs 31.2%; to `CCOC(=O)c1ccc(Nc2c(-c3cccc(Cl)c3)nc3cnccn23)cc1` [P22522, ethyl 4-[[2-(3-chlorophenyl)imidazo[1,2-a]pyrazin-3-yl]amino] benzoate], 32.3%.
To `CSc1ccc(-c2nc3cnccn3c2Nc2cccc(C(=O)O)c2)cc1` [P37298, 3-[[2-(4-methyl-sulfanylphenyl)imidazo [1,2-a]pyrazin-3-yl]amino]benzoic acid] belongs 33.6%; to `CCOC(=O)c1ccc(Nc2c(-c3ccc(Cl)cc3)nc3cnccn23)cc1` [P22492, ethyl 4-[[2-(4-chlorophenyl)imidazo[1,2-a]pyrazin-3-yl]amino] benzoate], 29.5%.
Turning to `CNC(=O)c1ccc(Nc2c(-c3ccc(C)cc3)nc3cnccn23)cc1` [P19482, N-methyl-4-[[2-(4-methylphenyl)imidazo [1,2-a]pyrazin-3-yl]amino]benzamide], the inhibition at 50 µM is 34.1%.
Regarding `O=C(NCc1ccco1)c1ccc(Nc2c(-c3ccccc3)nc3cnccn23)cc1` [P22435, N-(furan-2-ylmethyl)-4-[(2-phenylimidazo [1,2-a]pyrazin-3-yl)amino]benzamide], the inhibition at 50 µM is 23.9%.
`NC(=O)c1cccc(Nc2c(-c3ccc(Cl)cc3)nc3cnccn23)c1` [P19492, 3-[[2-(4-chlorophenyl)imidazo[1,2-a]pyrazin-3-yl]amino] benzamide]: the inhibition at 50 µM was found to be 35.4%.
Then `O=C(NCCN1CCOCC1)c1ccc(Nc2c(-c3ccc(Cl)cc3)nc3cnccn23)cc1` [P22413, 4-[[2-(4-chlorophenyl)imidazo[1,2-a]pyrazin-3-yl]amino]-N-(2-morpholin-4-ylethyl)benzamide], with 36.1%; and `COc1ccc(-c2nc3cnccn3c2Nc2ccc(C(=O)NCc3ccco3)cc2)cc1OC` [P22480, 4-[[2-(3,4-dimethoxy-phenyl)imidazo[1,2-a]pyrazin-3-yl]amino]-N-(furan-2-ylmethyl)benzamide], with 40.6%.
Then `Cc1ccc(-c2nc3cnccn3c2Nc2ccc(C(=O)NC(C)C)cc2)cc1` [P22452, 4-[[2-(4-methylphenyl)imidazo[1,2-a]pyrazin-3-yl]amino]-N-propan-2-ylbenzamide], with 33.6%.
